Literature values as cited in patent US9364497B2, “Treatment of cognitive disorders” (Isis Innovation Limited, priority 2010, dated 2016).

What was measured:
[1] = test system: normal participants with baseline tHcy levels >13 μmol/L; details: 0.8 mg/d for three years
[2] = test system: subjects with mild cognitive impairment; details: MCI
[3] = test system: mild cognitive impairment; details: MCI; over four years

Nc1nc2ncc(CNc3ccc(C(=O)N[C@@H](CCC(=O)O)C(=O)O)cc3)nc2c(=O)[nH]1 [folic acid]
effect on cognitive tests [1]: beneficial effect on several cognitive tests

COc1ccc2c3c1O[C@H]1C[C@@H](O)C=C[C@@]31CCN(C)C2 [galantamine]
deaths in treatment groups versus placebo [2]: significantly greater number of deaths

CCN(C)C(=O)Oc1cccc([C@H](C)N(C)C)c1 [rivastigmine]
benefit on cognitive function [3]: no significant benefit | benefit on the progression rate to Alzheimer's Disease [3]: no significant benefit
